The test system of series [1] is Resistant Candida albicans (clinical isolate-45). Kind of series: EC50 in combination with fluconazole, resistant C. albicans. The class given is cell-based. Particulars: C. albicans clinical isolate-45; [fluconazole] = 64 μg/mL; read-out: EC50 Resistant Candida albicans.
In series [2] the test system is susceptible strain (HLY4123) of C. albicans. Kind of series: Dose-response with fluconazole (0.25 μg/mL) against susceptible strain. The class given is cell-based, Candida albicans. On the procedure: (§1) C. albicans was grown in SC medium overnight and then diluted to an effective OD600 of 0.0625. Serial ten-fold dilutions of the test compounds (0.15-1500 μM) were prepared in DMSO in 1.5 mL Eppendorf tubes. […] The plates were incubated in a rotary shaker/incubator at 30° C. for 16 h. The contents of each well was resuspended with a micropipettor and a 20 μL aliquot was added to a polystyrene cuvette and diluted with 680 μL of deionized water. The suspension was triturated again immediately before measuring the absorbance at 600 nm (OD600) for cell densities. EC50 values were determined by fitting to the Hill equation using the Excel-based tool ED50PLUS v1.0 (Mario H. Vargas) or using Mathematica. Similar procedures were used for Candida glabrata and Cryptococcus neoformans.

The test system of a further series is NIH 3T3 cells. Kind of series: Cytotoxicity, LDH assay. The class given is cell-based. The conditions noted are these: concentrations up to 1.5 mM. On the procedure: The cytotoxicity of spiroindoline Compounds 1, 8 and 25 were tested against NIH 3T3 cells at concentrations up to 1.5 mM (FIG. 13) using an LDH assay.
The subject of another series is Candida glabrata. The series can be described thus: EC50 in combination with fluconazole, Candida glabrata. The class given is cell-based. Particulars: [fluconazole] = 128 μg/mL.
Source text: (§2) Strains and growth condition. The wild-type Candida albicans strains used were SC5314 and CaSS1. Cdr1 heterozygous were from Merck Sharp & Dohme Corp. Double Barcoded (DBC) library of heterozygous Candida albicans mutants (version 2013A). Cdr1 deficient mutant was obtained by counterselection of the GRACE library strain on 5-Fluoroorotic Acid (5-FOA) containing plate. Clinical isolated resistant C. albicans were from Dr. David Rogers. Cryptococcus neoformans var. grubii H99 (ATCC 208821) and Candida glabrata BG2, a fluconazole-resistant clinical isolate, were used. Yeast strains were cultured at 30° C. in synthetic complete (SC) medium containing 2% glucose.
as §1
(§3) Because fungal drug-efflux ABC transporters are conserved, Cdr1 inhibitors that target the conserved regions of the pumps are expected to inhibit the drug efflux pumps in all fungi including C. albicans. […] Therefore, those spiroindolinones are candidates for combination antifungal therapy with azoles against invasive infections of not only C. albicans, but also other pathogenic fungi.

The next series deals with Cryptococcus neoformans. The series can be described thus: EC50 in combination with fluconazole, Cryptococcus neoformans. The class given is cell-based. The conditions noted are these: [fluconazole] = 4 μg/mL.
Source text: as §2, §1, §3

The test system of series [3] is resistant clinical isolates of C. albicans. Further details: unit not given beside the values. The conditions noted are these: cited from earlier work.
In series [4] the target is C. albicans sterol α-demethylase (a.k.a. Erg11 or CYP51) (Candida albicans, UniProt P10613). The series can be described thus: Literature: inhibition of sterol α-demethylase by fluconazole. The class given is biochemical. Particulars: ten times the Ki, >90% inhibition expected.
Series [5] relates to C. albicans strain HLY4123 and clinical isolates 26 and 45. Kind of series: Checkerboard assay (MIC90, FIC index). The class given is cell-based, Candida albicans. Particulars: Candida albicans. On the procedure: Checkerboard assays were carried out using four 24-well plates. The results on each plate were normalized by duplication of one row and one column with a row and column on another plate. C. albicans was grown in SC medium overnight and then diluted to an effective OD600 of 0.0625. Serial ten-fold dilutions of the test compounds (150 mM) were prepared in DMSO in 1.5 mL Eppendorf tubes. […] Concentrations of compound in rows 1-11 varied from 300 μM to 0.0003 nM; the last row 12 contained no compound. […] The plates were incubated in a rotary shaker/incubator at 30° C. for 16 h. The contents of each well was resuspended with a micropipettor and a 20 μL aliquot was added to a polystyrene cuvette and diluted with 680 μL of deionized water. The suspension was triturated again immediately before measuring the absorbance at 600 nm. The MIC90 values were determined as the lowest concentrations of the drugs (alone or in combination) that inhibited fungal growth by 90% compared with that of the drug-free wells.
In all of the strains tested, the FIC index was below 0.5, fitting the classical definition of synergy.

For series [6], the system named is resistant clinical isolates of C. albicans. The series can be described thus: Screen of resistant clinical isolates, single dose, broth microdilution (growth OD600). The class given is cell-based, Candida albicans. The conditions noted are these: fluconazole 64 μg/mL alone, 16 h in SC at 30° C. The text has this:
(Flowers, S. A., et al. Eukaryotic Cell 2012, 11, 1289-1299.) The strains grow at dramatically different rates.
In general terms: Broth dilution looks for growth in wells or tubes with falling amounts of substance.

The conditions of series [7]: in the presence of fluconazole; cited from earlier work.
Where [8] appears, read: Candida albicans, with fluconazole 0.25 μg/mL, strain HLY4123.
The mark [9] stands for this setting: with fluconazole 0.25 μg/mL, strain HLY4123.

Data on 5 compounds can be found in US11174267B2, “Spiroindolinones and therapeutic uses thereof” (The Regents of the University of California, priority 2015, dated 2021).

For orientation: EC50 means the concentration at which the effect is half-maximal. The MIC90 is the lowest concentration that inhibits either 90% of growth or 90% of the strains tested, depending on the study. By MIC is commonly meant the lowest concentration that inhibits growth of the organism.

Where two headings read alike, the source gives them in different places. Where only a bound is given, the exact number is not on record here.

C. albicans sterol α-demethylase (a.k.a. Erg11 or CYP51), sequence (P10613 whole entry): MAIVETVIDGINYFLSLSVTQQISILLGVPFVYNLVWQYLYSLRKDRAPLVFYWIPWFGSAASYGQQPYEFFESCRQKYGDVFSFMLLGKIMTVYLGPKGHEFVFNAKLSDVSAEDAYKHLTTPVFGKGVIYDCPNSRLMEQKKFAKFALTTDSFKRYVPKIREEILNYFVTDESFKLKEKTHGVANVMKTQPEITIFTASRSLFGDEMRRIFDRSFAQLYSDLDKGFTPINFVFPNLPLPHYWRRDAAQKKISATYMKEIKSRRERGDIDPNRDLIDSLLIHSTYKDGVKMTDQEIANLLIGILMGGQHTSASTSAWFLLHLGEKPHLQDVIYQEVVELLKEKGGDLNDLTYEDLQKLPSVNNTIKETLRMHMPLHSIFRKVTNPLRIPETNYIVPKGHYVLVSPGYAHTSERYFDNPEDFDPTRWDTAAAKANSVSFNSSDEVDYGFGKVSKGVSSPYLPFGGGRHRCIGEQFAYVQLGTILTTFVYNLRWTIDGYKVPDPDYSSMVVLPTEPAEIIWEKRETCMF

As for `Cc1c(Cl)ccc2c1NC(=O)[C@]21N[C@H](Cc2ccccc2)[C@@H]2C(=O)N(c3ccccc3)C(=O)[C@@H]21` (racemic) [Compound 8], the EC50 turned out to be 490 nM in series [1], 1 nM in series [2] (setting [8]), 1720 nM with Candida glabrata and 11300 nM with Cryptococcus neoformans. The cytotoxicity entry in the series with NIH 3T3 cells is given as “weak to negligible cytotoxicity”.

Take `Cc1c(Cl)ccc2c1NC(=O)[C@@]21[C@H]2C(=O)N(c3ccccc3)C(=O)[C@H]2[C@H]2CN(C(=O)OC(C)(C)C)CCN21` (racemic) [Compound 9, (±)-tert-Butyl (3R,3a′R,3b'S,9a'S)-6-chloro-7-methyl-1′,2,3′-trioxo-2′-phenyl-2′,3′,3a′,3b′,4′,6′,7′,9a′-octahydrospiro[indoline-3,9′-pyrrolo[3′,4′:3,4]pyrrolo[1,2-a]pyrazine]-5′(1′H)-carboxylate]: the EC50 in series [2] (setting [8]) was 5.6 nM; in series [2] (setting [9]) it was 6 to 8 nM. Besides, in series [2] (ratio of EC50s, diastereomers), the “times more potent than compound 33” value is on record as “over 35”.

Take `Cc1c(Cl)ccc2c1NC(=O)[C@@]21[C@H]2C(=O)N(c3ccccc3)C(=O)[C@H]2[C@H]2CNCCN21` [Compound 20]: the “activity (in words)” value in series [2] (setting [9]) is listed as “low activity”.

Turning to `OC(Cn1cncn1)(Cn1cncn1)c1ccc(F)cc1F` [fluconazole, reference compound], the MICFlc in [3] (clinical isolate 15) is 16; in series [3] (clinical isolate 16), 16; in series [3] (clinical isolate 17), 32; in [3] (clinical isolate 21) it was 32; in series [3] (clinical isolate 22), 32; in series [3] (clinical isolate 23), 32. Further, the MICFlc is 32 in [3] (clinical isolate 25); 32 in series [3] (clinical isolate 26); 64 in [3] (clinical isolate 30); 64 in series [3] (clinical isolate 33); 64 in [3] (clinical isolate 36); 128 in [3] (clinical isolate 41). Moreover, the MICFlc in series [3] (clinical isolate 45) is 128. Also, the “theoretical limit for fluconazole potency” value in series [4] was “around 0.3 μM”. For the same compound, the MIC90 amounted to 836 µM in [5] (clinical isolate 26, fluconazole alone, read-out: MICFlc (MIC90)); 105 µM in series [5] (clinical isolate 26, with Compound 25, read-out: MICFlc (+cpd) (MIC90)); 836 µM in series [5] (clinical isolate 45, fluconazole alone, read-out: MICFlc (MIC90)); 105 µM in series [5] (clinical isolate 45, with Compound 25, read-out: MICFlc (+cpd) (MIC90)); 0.125 µM in series [5] (read-out: MIC90 for fluconazole, susceptible strain, Compound 25 present at 300 nM); 0.5 µM in series [5] (strain HLY4123, fluconazole alone, read-out: MICFlc (MIC90)). Besides, in series [5] (strain HLY4123, with Compound 25, read-out: MICFlc (+cpd) (MIC90)), the MIC90 was found to be 0.125 µM. Further, the “Growth (OD600) +Fluc” value in series [6] (clinical isolate 15) came out at 5.58; in [6] (clinical isolate 16), 0.64; in series [6] (clinical isolate 17), 3.96; in [6] (clinical isolate 21), 6.46; in series [6] (clinical isolate 22), 3.27; in [6] (clinical isolate 23), 6.77. The “Growth (OD600) +Fluc” value was 2.90 in series [6] (clinical isolate 25); 6.44 in [6] (clinical isolate 26); 9.40 in series [6] (clinical isolate 30); 7.38 in series [6] (clinical isolate 33); 5.08 in [6] (clinical isolate 36); 9.47 in series [6] (clinical isolate 41). Besides, the “Growth (OD600) +Fluc” value in series [6] (clinical isolate 45) turned out to be 9.17; in [6] (clinical isolate 49) it was 11.31.

For `CN[C@H]1CC[C@@H](c2ccc(Cl)c(Cl)c2)c2ccccc21` [sertraline], the MIC in series [7] was not below 0.5 µg/mL.
